We go through one molecule from patent publication US5952323A, “Carbapenem antibiotic” (Merck & Co., Inc., priority 1998, dated 1999).

Where two headings read alike, the source gives them in different places.

The format of data set [1] is physicochemical. The note with it: 25° C. The method, then:
The final pH of the solution is shown below. Solution stability of this intravenous formulation was determined at 25° C. with the following results.

The nature of data set [2]: pH of the solution upon dissolution. Format: physicochemical. To be noted: monosodium salt of compound I. An excerpt:
The compositions of the present invention are generally formulated using a carbon dioxide source. Preferred sources of carbon dioxide are carbon dioxide (gas, liquid or solid), carbonates and bicarbonates, and more preferably sodium carbonate and sodium bicarbonate, which can be incorporated into the formulation, such that an appropriate pH, e.g., about 6.2-8.5, is obtained upon dissolution. The native pH of the monosodium salt of compound I is approximately 5.4.
One formulation that is of particular interest is comprised of about 3-6 parts by weight, and preferably about 4.5 parts by weight, of compound I, or the pharmaceutically acceptable salt, stabilized form, prodrug or hydrate thereof, and 1 part by weight of sodium bicarbonate. Preferably the carbapenem is in the form of the monosodium salt. The pH which results upon dissolution of this formulation is approximately 6.5. Formulating the drug in this manner can extend the stability of the product in solution.
Another formulation that is of particular interest is comprised of about 4-10 parts by weight, and preferably about 6.7 parts by weight, of the compound of formula I, or the pharmaceutically acceptable salt, stabilized form, prodrug or hydrate thereof, and 1 part by weight sodium carbonate. Preferably the carbapenem is in the form of the monosodium salt. […]

The subject of a further data set is dehydropeptidase (DHP). Briefly: Susceptibility to attack by dehydropeptidase (DHP). In kind it is in vitro ADME. The note with it: compared with naturally occurring carbapenems. The text has this: The compound of formula I is of the broad class known as carbapenems. Naturally occurring carbapenems are susceptible to attack by a renal enzyme known as dehydropeptidase (DHP). This attack or degradation may reduce the efficacy of the carbapenem antibacterial agent. […] However, use of a DHP inhibitor is optional and is contemplated as being included in the present invention. Inhibitors of DHP and heir use with carbapenem antibacterial agents are disclosed in European Patent Applications No. 79102616.4, filed Jul. 24, 1979 (Patent No. 007 614); and No. 82107174.3, filed Aug. 9, 1982 (Publication No. 072 014)!.
The compound of the present invention may, where DHP inhibition is desired or necessary, be combined or used with the appropriate DHP inhibitor as described in the aforesaid patents and published application. The cited European Patent Application defines the procedure for determining DHP susceptibility of the present carbapenems and disclose suitable inhibitors, combination compositions and methods of treatment.

For the molecule `CC(O)C1C(=O)N2C(C(=O)O)=C(SC3CNC(C(=O)Nc4cccc(C(=O)O)c4)C3)C(C)C12` (stereo not shown) [Compound I], in data set [1] (12 mg/mL (marked *)), the “final pH” value was 7.4, the k turned out to be 0.004994 h⁻¹ and the “t 90%” value came to 21.0 h. The “initial pH” value in data set [1] (12 mg/mL (marked *), intravenous formulation) was 7.0. In data set [1] (36 mg/mL), the “final pH” value is listed as 7.3, the k worked out at 0.01044 h⁻¹ and the “t 90%” value was 7.3 h. The “initial pH” value in data set [1] (36 mg/mL, intravenous formulation with sodium bicarbonate 8.0 mg/mL, sodium chloride 4.0 mg/mL) worked out at 6.7. In addition, the “native pH” value in data set [2] is given as “approximately 5.4”. In the data set on dehydropeptidase (DHP), the “susceptibility to attack by dehydropeptidase (DHP)” value is on record as “significantly less subject to such attack”.
